In patent US5563125A, “5'-deoxy-5'-(substituted)alkylthioribose compounds and their pharmaceutical compositions” (priority 1992, dated 1996):

Columns and labels:
[1] = system: T. b. brucei LAB 110 EATRO; assay: In vivo antitrypanosomal activity, LAB EATRO mouse infection model; conditions: 7 days, miniosmotic pump
Protocol: ^a Animals were treated with surgically implanted miniosmotic pumps
loaded as per manufacturers instructions with MTA, HETA or MFETA suspende

[2] = target: T1, Mouse Liver MTA Phosphorylase (Mus musculus, UniProt Q9CQ65); assay: Mouse liver MTA phosphorylase substrate/inhibitor assay; type: biochemical
T1 sequence (Q9CQ65 1-283): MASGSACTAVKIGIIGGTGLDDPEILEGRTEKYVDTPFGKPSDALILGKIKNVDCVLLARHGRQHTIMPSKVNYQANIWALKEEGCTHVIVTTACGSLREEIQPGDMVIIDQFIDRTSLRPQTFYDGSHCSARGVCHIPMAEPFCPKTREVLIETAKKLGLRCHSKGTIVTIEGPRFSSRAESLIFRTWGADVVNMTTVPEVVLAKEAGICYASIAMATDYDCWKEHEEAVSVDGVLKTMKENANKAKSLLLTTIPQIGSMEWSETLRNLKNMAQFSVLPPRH
Protocol: ^a MTA phosphorylase activity was assayed as described in Sufrin et

[3] = system: L5178Y cells (MTA phosphorylase-containing); assay: Growth inhibition of L5178Y cells; type: cell-based, mouse; conditions: Mus musculus, 48 h
Protocol: L1210, L5178Y and MOLT-4 cell lines were grown in RPMI 1640 and 10% Nu Serum (Collaborative Research Inc., Lexington, Mass.) and CCRF-CEM cells were grown in 10% Horse Serum (Gibco Laboratories, Grand Island, N.Y.) and maintained as previously described for suspension cultures by Pera et al. in Cancer Res. 46, 1148, 1986. Cell cultures (0.3×10^5 cells/ml) were treated with each compound at 0.1 to 1000 μM to determine the concentration that inhibited growth by 50% (IC50) at 48 hr for the L1210 and L5178Y cells and at 96 hr for the CCRF-CEM and MOLT-4 cells. The incubation times allowed approximately 4 cell doublings in each cell line. All compounds were freshly prepared prior to treatment by dissolving in DMSO and diluting in serum-free media. Cells were counted by electron particle counting (Model XF' Coulter Counter; Coulter Electronics, Hialeah, Fla.).
For each compound, the concentrations required to inhibit cell growth by 50% (IC50 values) are shown in Table 7 for two murine leukemic cell lines, L1210 and L5178Y [MTA phosphorylase-deficient and MTA phosphorylase-containing, respectively] and two human leukemic cell lines, CCRF-CEM and MOLT-4 [MTA phosphorylase-deficient and MTA phosphorylase-containing, respectively]. ETA, MFETA, HETA and PTA had lower IC50 values in the L5178Y cells than in the L1210 cells. […] This differential is consistent with the possibility that, in L5178Y cells, MFETA is cleaved by MTA phosphorylase to the growth inhibitory metabolite, 5-monofluoroethylthioribose-1-phosphate (MFETR-1-P).

[4] = system: L5178Y leukemic cells; assay: Antitumor effects in L5178Y leukemic mice; type: in vivo, DBA/2N mice
Protocol: The antitumor effects of MFETA were evaluated in DBA/2N mice (Charles River) who received i.p. transplants of 10^6 L1210 leukemic cells or 10^6 L5178Y leukemic cells on day 0 according to protocols described previously by Bernacki et al., Cancer Res. 47, 799, 1987. The increase in life span (% ILS) of treated animals relative to untreated, tumor-bearing animals was used as the measure of their therapeutic effectiveness at specified dose regimens.
^a MFETA was administered i.p. on days 1, 2, 3, 4, 5 following i.p.
implantation of 10^6 tumor cells on day 0.
^b % ILS is the percentage of increase in life span.

[5] = system: A121 (human ovarian carcinoma); assay: In vitro evaluation, A121; type: cell-based; conditions: A121, medium B, 72 hours, solvent DMSO
Protocol: (§1) In vitro evaluations of the compound 5'-deoxy-5'-(monofluoroethylthio) adenosine (MFETA) were performed using the materials and conditions described in Tables 9 and 10.
(§2) (a) Basal medium + RPMI 1640 + 20 mM HEPES;
(§3) B--5% NuSerum IV + 5% FCS,
(§4) *Incubation or exposure time is determined by the doubling time of the
(§5) cell line such that each is exposed to the compound for 3-4 cell

[6] = system: MCF7 (human breast carcinoma); assay: In vitro evaluation, MCF7; type: cell-based; conditions: MCF7, medium B, 72 hours, solvent DMSO
Protocol: as §1, §2, §3, §4, §5

[7] = system: A549 (human non-small cell lung carcinoma); assay: In vitro evaluation, A549; type: cell-based; conditions: A549, medium B, 72 hours, solvent DMSO
Protocol: as §1, §2, §3, §4, §5

[8] = system: PSN-1 (human pancreatic carcinoma); assay: In vitro evaluation, PSN-1; type: cell-based; conditions: PSN1, PSN-1, medium C, 72 hours, solvent DMSO
Protocol: as §1, §2, §3, §4, §5

[9] = system: HO (human melanoma); assay: In vitro evaluation, HO; type: cell-based; conditions: medium B, 72 hours
Protocol: as §1
(§6) ^(a) Basal medium = RPMI 1640 + 20 mM HEPES + 2 mM Lglutamine
(§7) B = 5% FCS + 5% NuSerum IV

[10] = system: MALME (human melanoma); assay: In vitro evaluation, MALME; type: cell-based; conditions: medium B, 72 hours
Protocol: as §1, §6, §7

[11] = system: PANuT (human melanoma); assay: In vitro evaluation, PANuT; type: cell-based; conditions: medium B, 72 hours
Protocol: as §1, §6, §7

[12] = system: SH-1 (human melanoma); assay: In vitro evaluation, SH-1; type: cell-based; conditions: SH-1, medium B, 72 hours
Protocol: as §1, §6, §7

[13] = system: STO-1 (human melanoma); assay: In vitro evaluation, STO-1; type: cell-based; conditions: STO-1, medium B, 72 hours
Protocol: as §1, §6, §7

SMILES: Nc1ncnc2c1ncn2[C@@H]1O[C@H](CSCCF)[C@@H](O)[C@H]1O [MFETA, 5'-deoxy-5'-(monofluoroethylthio)adenosine]
- % Cured ([1]; 10 mg/kg/day): 0%
- MSD (mean survival in days of animals dying of infection) ([1]; 10 mg/kg/day): 5.0 days
- Number Cured Total ([1]; 10 mg/kg/day): 0/5
- % Cured ([1]; 25 mg/kg/day): 40%
- MSD (mean survival in days of animals dying of infection) ([1]; 25 mg/kg/day): 11.6 days
- Number Cured Total ([1]; 25 mg/kg/day): 2/5
- % Cured ([1]; 50 mg/kg/day): 0%
- MSD (mean survival in days of animals dying of infection) ([1]; 50 mg/kg/day): 10.6 days
- Number Cured Total ([1]; 50 mg/kg/day): 0/5
- % Cured ([1]; 100 mg/kg/day): 40%
- MSD (mean survival in days of animals dying of infection) ([1]; 100 mg/kg/day): 12.0 days
- Number Cured Total ([1]; 100 mg/kg/day): 2/5
- Ki ([2]; mouse liver MTA phosphorylase, read-out: K1): 3.1 µM
- Substrate (% Control) ([2]; substrate activity relative to MTA): 64 % Control
- IC50 [3]: 60 ± 35 µM
- % ILS (percentage of increase in life span) ([4]; 10 mg/kg i.p. days 1-5): 12%
- Mean Death Weight ([4]; 10 mg/kg i.p. days 1-5): 19.7 g
- Survival Mean ± SD ([4]; 10 mg/kg i.p. days 1-5): 9.0 ± 3 days
- Survival Median ([4]; 10 mg/kg i.p. days 1-5): 9 days
- Survival Range ([4]; 10 mg/kg i.p. days 1-5): 8 to 10 days
- % ILS (percentage of increase in life span) ([4]; 50 mg/kg i.p. days 1-5): 37%
- Mean Death Weight ([4]; 50 mg/kg i.p. days 1-5): 21.6 g
- Survival Mean ± SD ([4]; 50 mg/kg i.p. days 1-5): 10.0 ± 6 days
- Survival Median ([4]; 50 mg/kg i.p. days 1-5): 11 days
- Survival Range ([4]; 50 mg/kg i.p. days 1-5): 8 to 11 days
- % ILS (percentage of increase in life span) ([4]; 100 mg/kg i.p. days 1-5): 37%
- Mean Death Weight ([4]; 100 mg/kg i.p. days 1-5): 23.1 g
- Survival Mean ± SD ([4]; 100 mg/kg i.p. days 1-5): 10.5 ± 4 days
- Survival Median ([4]; 100 mg/kg i.p. days 1-5): 11 days
- Survival Range ([4]; 100 mg/kg i.p. days 1-5): 8 to 12 days
- % ILS (percentage of increase in life span) ([4]; 200 mg/kg i.p. days 1-5): 62%
- Mean Death Weight ([4]; 200 mg/kg i.p. days 1-5): 20.4 g
- Survival Mean ± SD ([4]; 200 mg/kg i.p. days 1-5): 12.4 ± 9 days
- Survival Median ([4]; 200 mg/kg i.p. days 1-5): 13 days
- Survival Range ([4]; 200 mg/kg i.p. days 1-5): 9 to 14 days
- % ILS (percentage of increase in life span) ([4]; 300 mg/kg i.p. days 1-5): -75%
- Mean Death Weight ([4]; 300 mg/kg i.p. days 1-5): 18.4 g
- Survival Mean ± SD ([4]; 300 mg/kg i.p. days 1-5): 2.6 ± 4 days
- Survival Median ([4]; 300 mg/kg i.p. days 1-5): 2 days
- Survival Range ([4]; 300 mg/kg i.p. days 1-5): 2 to 4 days
- IC50 [5]: 269 µM
- IC50 [6]: 337 µM
- IC50 [7]: 346 µM
- IC50 [8]: 175 µM
- IC50 [9]: 333 ± 5.9 µM
- IC50 [10]: 364 ± 13 µM
- IC50 [11]: 160 ± 8.1 µM
- IC50 [12]: 319 ± 10 µM
- IC50 [13]: 296 ± 9.9 µM
